20 molecules from ChEMBL document CHEMBL4715706, “Discovery of Benzotriazolo[4,3-d][1,4]diazepines as Orally Active Inhibitors of BET Bromodomains” (ACS Med Chem Lett, 2016) can be followed below.

One may read the EC50 as the concentration that produces a half-maximal response. What is called IC50 is the concentration at which inhibition is half-maximal. Lower therefore signals greater potency in that assay. The microsomal CLint is the rate of metabolic loss divided by the concentration. Read a high microsomal CLint as rapid turnover.

Data set [1] can be described thus: Inhibition of BET in human THP-1 cells assessed as suppression of LPS-induced IL-6 release measured after 16 hrs by chemiluminescence ELISA. The conditions noted are these: THP-1, 16 h. It is filed as cell-based. (In general: ELISA stands for enzyme-linked immunosorbent assay.)
Data set [2] has as its target Bromodomain-containing protein 4 (Homo sapiens, UniProt O60885).
Description: Inhibition of His/FLAG-tagged BRD4 BD1 (unknown origin) using histone H4-TetraAcetylated-biotin peptide as substrate incubated for 20 mins by AlphaLISA assay
The nature of data set [3]: Intrinsic clearance in mouse liver microsomes. (Microsomes from liver hold many membrane-bound enzymes, among them those of drug oxidation.)
Data set [4] can be described thus: Protein binding in mouse plasma.
A short description of data set [5]: Intrinsic clearance in rat liver microsomes.
Data set [6] can be described thus: Protein binding in human plasma. The conditions noted are these: read-out: PPB (converted). It is filed as ADME, cell-free.
Data set [7] in a line: Intrinsic clearance in human liver microsomes.
The nature of data set [8]: Protein binding in dog plasma.
Data set [9] in a line: Protein binding in rat plasma. It is filed as ADME, cell-free. The following applies: read-out: PPB (converted).
Data set [10] is described as follows: Intrinsic clearance in dog liver microsomes.

For the molecule `Cc1ncnn1-c1ccc2c(c1)N(c1ccc(Cl)cc1)C[C@@H](C)c1nnc(C)n1-2`, the EC50 in [1] stood at 450 nM. This molecule also returned a concentration for half-maximal inhibition (IC50) in [2] of 280 nM.
Taken in the same sequence, the figures for `Cc1nnc2n1-c1ccc(S(C)(=O)=O)cc1N(c1ccc(Cl)cc1)C[C@H]2C` were 670 nM and 1200 nM.
In the case of `Cc1noc2c1-c1ccccc1N(c1ccc(C#N)cc1)CC2`, in data set [1], the EC50 is 4600 nM. Further, the IC50 in data set [2] is 550 nM. The microsomal CLint in [3] is 22 µL/min/mg; in data set [5] it was 24 µL/min/mg; in data set [7], 17 µL/min/mg; in [10] it was 18 µL/min/mg. Further, the fraction unbound in data set [4], in [6], in data set [8] and in data set [9] was below 0.01 throughout.
For the molecule `Cc1nnc2n1-c1ccccc1N(c1ccc(Cl)cc1)CC2C` (stereo not given), in data set [1], the EC50 amounted to 290 nM. The molecule also yielded an IC50 in data set [2] of 350 nM. Besides, the intrinsic clearance (microsomal CLint) in [3] is 110 µL/min/mg; in data set [5], 25 µL/min/mg; in data set [7] it was 24 µL/min/mg; in [10] it was 83 µL/min/mg. The fraction unbound was 0.04 in [4], 0.03 in [6], 0.05 in data set [8] and 0.04 in data set [9].
Consider `Cc1nnc2n1-c1ccccc1N(c1ccc(Cl)cc1)C(C)C2` (stereo not given), for which the EC50 in [1] came out at 3100 nM. The molecule also gave an IC50 in [2] of 1200 nM. The intrinsic clearance (microsomal CLint) amounted to 65 µL/min/mg in data set [5] and 25 µL/min/mg in [7]. In addition, the fraction unbound in data set [6] was 0.02; in [9] it was 0.03.
As for `CCNC(=O)CC1CN(c2ccc(Cl)cc2)c2ccccc2-n2c(C)nnc21` (stereo not given), the EC50 in [1] amounted to 1800 nM. The IC50 in [2] was 2100 nM. Moreover, the microsomal CLint in data set [3] was 52 µL/min/mg; in [5], 74 µL/min/mg; in [7], 44 µL/min/mg; in data set [10], 33 µL/min/mg. Further, the fraction unbound in [4] was 0.08; in data set [6] it was 0.09; in data set [8] it was 0.09; in [9], 0.13.
In data set [2], `Cc1nnc2n1-c1ccccc1NCC2` registered a 50% inhibitory concentration (IC50) of 62000 nM.
Turning to `Cc1ccc(-c2ccc3c(c2)N(c2ccc(Cl)cc2)C[C@@H](C)c2nnc(C)n2-3)cn1`, the EC50 in [1] came out at 100 nM. Moreover, the midpoint of inhibition in [2], the IC50, lay at 46 nM.
For `Cc1noc2c1-c1ccc(-c3cnn(C)c3)cc1N(c1ccc(C#N)cc1)CC2CC(N)=O` (stereo not given), the EC50 in data set [1] was found to be 810 nM. The molecule also yielded an IC50 in data set [2] of 310 nM. The microsomal CLint in data set [3] is 37 µL/min/mg; in [5], 22 µL/min/mg; in data set [7], 27 µL/min/mg; in [10], 69 µL/min/mg. Further, the fraction unbound in data set [4] is 0.04; in data set [6] it was 0.01; in [8] it was 0.02; in [9], 0.06.
With `Cc1nnc2n1-c1ccc(-c3cnn(C)c3)cc1N(c1ccc(Cl)cc1)CC2`, the EC50 in [1] stood at 130 nM. The concentration for half-maximal inhibition (IC50) in [2] amounted to 44 nM. In addition, the microsomal CLint in data set [3] is 77 µL/min/mg; in data set [5], 154 µL/min/mg; in data set [7], 14 µL/min/mg; in data set [10], 91 µL/min/mg. The fraction unbound was 0.03 in data set [4], 0.04 in [6], 0.04 in data set [8] and 0.05 in [9].
`Cc1noc2c1-c1ccc(-c3cnn(CC(N)=O)c3)cc1N(c1ccc(C#N)cc1)CC2C` (stereo not given): the concentration for a half-maximal effect (EC50) in data set [1] was 67 nM. Moreover, the 50% inhibitory concentration (IC50) in [2] came to 31 nM. Besides, the microsomal CLint in data set [3] turned out to be 44 µL/min/mg; in data set [5], 62 µL/min/mg; in data set [7], 33 µL/min/mg; in data set [10], 22 µL/min/mg. In addition, the fraction unbound in data set [4] was 0.04; in data set [6] it was 0.01; in data set [8], 0.01; in [9], 0.03.
With `Cc1noc2c1-c1ccc(-c3ccc(N)nc3)cc1N(c1ccc(C#N)cc1)CC2`, in data set [1], the EC50 worked out at 380 nM. In addition, in data set [2], the IC50 came out at 64 nM. Also, the microsomal CLint came out at 101 µL/min/mg in [3], 195 µL/min/mg in [5], 86 µL/min/mg in data set [7] and 165 µL/min/mg in [10]. Moreover, the fraction unbound in data set [4] is below 0.01; in data set [6] it was below 0.01; in [8], below 0.01; in [9] it was 0.01.
Turning to `Cc1nnc2n1-c1ccc(-c3ccc(=O)n(C)c3)cc1N(c1ccc(Cl)cc1)C[C@H]2C`, the EC50 in data set [1] turned out to be 36 nM. Moreover, the midpoint of inhibition in data set [2], the IC50, lay at 25 nM.
Regarding `Cc1noc2c1-c1ccc(-c3ccc(N)nc3)cc1N(c1ccc(C#N)cc1)CC2C` (stereo not given), the EC50 in data set [1] was found to be 78 nM. Besides, in [2], inhibition was half-maximal at 36 nM (IC50). Further, the microsomal CLint in data set [3] amounted to 44 µL/min/mg; in data set [5], 210 µL/min/mg; in [7], 62 µL/min/mg; in [10] it was 240 µL/min/mg. Further, the fraction unbound in data set [4] is 0.01; in data set [6] it was below 0.01; in [8] it was below 0.01; in [9] it was 0.02.
Consider `Cc1nnc2n1-c1ccc(-c3ccc(N)nc3)cc1N(c1ccc(Cl)cc1)CC2C` (stereo not given), for which the EC50 in data set [1] is 16 nM. The same molecule gave an IC50 in [2] of 26 nM. For the same molecule, the fraction unbound is 0.02 in [4], 0.02 in data set [6], 0.03 in [8] and 0.03 in data set [9]. In addition, the intrinsic clearance (microsomal CLint) in data set [5] worked out at 34 µL/min/mg; in data set [7], 6.4 µL/min/mg; in data set [10] it was 94 µL/min/mg.
As for `Cc1noc2c1-c1ccc(-c3ccc(=O)n(C)c3)cc1N(c1ccc(C#N)cc1)CC2C` (stereo not given), the EC50 in data set [1] was 94 nM. Also, the IC50 in [2] is 32 nM. In addition, the microsomal CLint came out at 64 µL/min/mg in data set [3], 71 µL/min/mg in [5], 52 µL/min/mg in data set [7] and 65 µL/min/mg in data set [10]. In addition, the fraction unbound in data set [4] was 0.01; in [6], 0.02; in data set [8], 0.02; in data set [9] it was 0.03.
As to `Cc1nnc2n1-c1ccc(C(N)=O)cc1N(c1ccc(Cl)cc1)C[C@H]2C`, the EC50 in [1] amounted to 96 nM. Moreover, the IC50 in data set [2] came out at 65 nM.
Taken in the same sequence, the figures for `Cc1nnc2n1-c1ccc(-c3ccc(N)nc3)cc1N(c1ccc(Cl)cc1)C[C@@H]2C` were 790 nM and 790 nM.
On to `Cc1nnc2n1-c1ccccc1N(c1ccc(Cl)cc1)CC2`, for which the EC50 in data set [1] is 2300 nM. This molecule also registered an IC50 in [2] of 1560 nM. Besides, the microsomal CLint was 500 µL/min/mg in [3], 126 µL/min/mg in data set [5], 154 µL/min/mg in [7] and 390 µL/min/mg in [10]. Besides, the fraction unbound is 0.07 in data set [4], 0.05 in [6], 0.05 in [8] and 0.05 in [9].
Turning to `Cc1nnc2n1-c1ccc(-n3cncn3)cc1N(c1ccc(Cl)cc1)C[C@H]2C`, in data set [1], the EC50 stood at 41 nM. The molecule further yielded an IC50 in [2] of 74 nM.
